How the values were obtained:
[1] = system: E. Faecalis CL 4877; assay: MIC determination in BHI media, OD600; assay type: cell-based; conditions: BHI + 0.1% casamino acids, 18 hours at 37° C., ≧90% OD600 inhibition
How it was run: (§1)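 Log-phase bacteria were diluted to about 5×10^5 CFU/ml and exposed to test compounds serially diluted in DMSO. Following 18 hours at 37° C, growth was read by plate absorbance to assign the MIC.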

[2] = system: E. faecium CL 4931; assay: MIC determination in BHI media, OD600; assay type: cell-based; conditions: BHI + 0.1% casamino acids, 18 hours at 37° C., ≧90% OD600 inhibition
How it was run: as §1

[3] = system: S aureus ATCC 29213; assay: MIC determination in BHI media, OD600; assay type: cell-based; conditions: BHI + 0.1% casamino acids, 18 hours at 37° C., ≧90% OD600 inhibition
How it was run: as §1

[4] = system: S. Aureus ATCC 33591; assay: MIC determination in BHI media, OD600; assay type: cell-based; conditions: BHI + 0.1% casamino acids, 18 hours at 37° C., ≧90% OD600 inhibition
How it was run: as §1

[5] = system: E. faecium ATCC 49624; assay: MIC determination in BHI media, OD600; assay type: cell-based; conditions: BHI + 0.1% casamino acids, 18 hours at 37° C., ≧90% OD600 inhibition
How it was run: as §1

[6] = system: E. faceium (ATCC 49624); assay: Zone of inhibition screen, 96 well agar array format;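 also: score 3 means fourfold and score 4 sixteenfold the reference zone size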; assay type: cell-based, E. faecium; conditions: zone of inhibition relative to 1 mg/ml stock solution of p-chlorobiphenylvancomycin
How it was run: (§2)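 Each compound was tested for antibacterial activity against a shared bacterial panel, with screening carried out on agar in a 96-well array.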

[7] = system: E. faecalis ATCC 29212; assay: MIC determination in BHI media, OD600; assay type: cell-based; conditions: BHI + 0.1% casamino acids, 18 hours at 37° C., ≧90% OD600 inhibition
How it was run: as §1

[8] = system: S. aureus (ATCC 29213); assay: Zone of inhibition screen, 96 well agar array format; assay type: cell-based; parameters: scale not given here; conditions: zone of inhibition relative to 1 mg/ml stock solution of p-chlorobiphenylvancomycin
How it was run: as §2

[9] = system: S. epidermidis (ATCC 12228); assay: as above; assay type: cell-based; parameters: scale not given here; conditions: zone of inhibition relative to 1 mg/ml stock solution of p-chlorobiphenylvancomycin
How it was run: as §2

Row | Structure (SMILES) | MIC E. faecalis CL 4877 [1] [µg/mL] | MIC E. faecium CL 4931 [2] [µg/mL] | MIC S. aureus ATCC 29213 [3] [µg/mL] | MIC S. aureus ATCC 33591 [4] [µg/mL] | MIC E. faecium ATCC 49624 [5] [µg/mL] | zone score, E. faecium ATCC 49624 [6] | MIC E. faecalis ATCC 29212 [7] [µg/mL] | zone score, S. aureus ATCC 29213 [8] | zone score, S. epidermidis ATCC 12228 [9]
1 | CN[C@H](CC(C)C)C(=O)N[C@H]1C(=O)N[C@@H](CC(N)=O)C(=O)N[C@H]2C(=O)N[C@H]3C(=O)N[C@H](C(=O)N[C@H](C(=O)O)c4cc(O)cc(O)c4-c4cc3ccc4O)[C@H](O)c3ccc(c(Cl)c3)Oc3cc2cc(c3O[C@@H]2O[C@H](CO)[C@@H](O)[C@H](O)[C@H]2O[C@H]2C[C@](C)(N)[C@H](O)[C@H](C)O2)Oc2ccc(cc2Cl)[C@H]1O [Compound 0, Vancomycin, reference compound] | > 250 | > 250 | 1.25 | 2.5 | 1.25 |  |  |  | 
2 | C[C@H](N)C(=O)N[C@H]1C(=O)N[C@@H](CC(N)=O)C(=O)N[C@H]2C(=O)N[C@H]3C(=O)N[C@H](C(=O)N[C@@H](C(=O)O)c4cc(O)cc(O)c4-c4cc3ccc4O)[C@H](O)c3ccc(c(Cl)c3)Oc3cc2cc(c3O[C@@H]2O[C@H](CO)[C@@H](O)[C@H](O)[C@H]2O[C@@H]2C[C@@](C)(NCc3ccc(-c4ccc(Cl)cc4)cc3)[C@@H](O)[C@@H](C)O2)Oc2ccc(cc2Cl)[C@H]1O [Compound 1] | 25 | 25 | 0.78 | 0.78 | 0.78 | 2 |  |  | 
3 | C[C@H]1O[C@H](O[C@H]2[C@H](Oc3c4cc5cc3Oc3ccc(cc3Cl)[C@@H](O)[C@@H](NC(=O)[C@H](N)COC(C)(C)C)C(=O)N[C@@H](CC(N)=O)C(=O)N[C@H]5C(=O)N[C@H]3C(=O)N[C@H](C(=O)N[C@@H](C(=O)O)c5cc(O)cc(O)c5-c5cc3ccc5O)[C@H](O)c3ccc(c(Cl)c3)O4)O[C@H](CO)[C@@H](O)[C@@H]2O)C[C@@](C)(NCc2ccc(-c3ccc(Cl)cc3)cc2)[C@H]1O [Compound 17] | 3.91 |  | 0.062 | 0.12 | 0.062 |  | 0.25 |  | 
4 | C[C@H](OC(C)(C)C)[C@@H](N)C(=O)N[C@H]1C(=O)N[C@@H](CC(N)=O)C(=O)N[C@H]2C(=O)N[C@H]3C(=O)N[C@H](C(=O)N[C@@H](C(=O)O)c4cc(O)cc(O)c4-c4cc3ccc4O)[C@H](O)c3ccc(c(Cl)c3)Oc3cc2cc(c3O[C@@H]2O[C@H](CO)[C@@H](O)[C@H](O)[C@H]2O[C@@H]2C[C@@](C)(NCc3ccc(-c4ccc(Cl)cc4)cc3)[C@@H](O)[C@@H](C)O2)Oc2ccc(cc2Cl)[C@H]1O [Compound 18] | 25 | 25 | 0.78 | 0.78 | 0.25 | 2 |  | 2 | 
5 | C[C@H]1O[C@H](O[C@H]2[C@H](Oc3c4cc5cc3Oc3ccc(cc3Cl)[C@@H](O)[C@@H](NC(=O)[C@@H]3CC(OC(C)(C)C)CN3)C(=O)N[C@@H](CC(N)=O)C(=O)N[C@H]5C(=O)N[C@H]3C(=O)N[C@H](C(=O)N[C@@H](C(=O)O)c5cc(O)cc(O)c5-c5cc3ccc5O)[C@H](O)c3ccc(c(Cl)c3)O4)O[C@H](CO)[C@@H](O)[C@@H]2O)C[C@@](C)(NCc2ccc(-c3ccc(Cl)cc3)cc2)[C@H]1O (stereo partly drawn) [Compound 30] | 25 | 25 |  |  | 0.78 | 2 |  |  | 
6 | CC1OC(OC2C(Oc3c4cc5cc3Oc3ccc(cc3Cl)C(O)C3NC(=O)C(NC(=O)C5NC(=O)C(CC(N)=O)NC(=O)C(NC(=O)C(N)CCCCNC=O)C(O)c5ccc(c(Cl)c5)O4)c4ccc(O)c(c4)-c4c(O)cc(O)cc4C(C(=O)O)NC3=O)OC(CO)C(O)C2O)CC(C)(NCc2ccc(-c3ccc(Cl)cc3)cc2)C1O (stereo not drawn) [Compound 79] | 25 | 25 |  |  | 0.78 | 2 |  | 2 | 
7 | CC1OC(OC2C(Oc3c4cc5cc3Oc3ccc(cc3Cl)C(O)C3NC(=O)C(NC(=O)C5NC(=O)C(CC(N)=O)NC(=O)C(NC(=O)C(N)CC[S+](C)[O-])C(O)c5ccc(c(Cl)c5)O4)c4ccc(O)c(c4)-c4c(O)cc(O)cc4C(C(=O)O)NC3=O)OC(CO)C(O)C2O)CC(C)(NCc2ccc(-c3ccc(Cl)cc3)cc2)C1O (stereo not drawn) [Compound 81] | 25 | 25 | 0.78 |  | 0.78 | 2 |  |  | 2
8 | CC1OC(OC2C(Oc3c4cc5cc3Oc3ccc(cc3Cl)C(O)C3NC(=O)C(NC(=O)C5NC(=O)C(CC(N)=O)NC(=O)C(NC(=O)CNC(=O)CNC(=O)c5ccc([N+](=O)[O-])cc5)C(O)c5ccc(c(Cl)c5)O4)c4ccc(O)c(c4)-c4c(O)cc(O)cc4C(C(=O)O)NC3=O)OC(CO)C(O)C2O)CC(C)(NCc2ccc(-c3ccc(Cl)cc3)cc2)C1O (stereo not drawn) [Compound 108] | > 25 | > 25 | 0.78 | 0.78 |  |  |  | 2 | 
9 | CN[C@H](CC(C)C)C(=O)N[C@H]1C(=O)N[C@@H](CC(N)=O)C(=O)N[C@H]2C(=O)N[C@H]3C(=O)N[C@H](C(=O)N[C@@H](C(=O)O)c4cc(O)cc(O)c4-c4cc3ccc4O)[C@H](O)c3ccc(c(Cl)c3)Oc3cc2cc(c3O[C@@H]2O[C@H](CI)[C@@H](O)[C@H](O)[C@H]2O[C@@H]2C[C@@](C)(NCc3ccc(-c4ccc(Cl)cc4)cc3)[C@@H](O)[C@@H](C)O2)Oc2ccc(cc2Cl)[C@H]1O [Compound 519] | > 25 | > 25 |  |  | 0.78 |  |  |  | 
10 | CC1OC(OC2C(Oc3c4cc5cc3Oc3ccc(cc3Cl)C(O)C3NC(=O)C(NC(=O)C5NC(=O)C(CC(N)=O)NC(=O)C(N)C(O)c5ccc(c(Cl)c5)O4)c4ccc(O)c(c4)-c4c(O)cc(O)cc4C(C(=O)O)NC3=O)OC(CO)C(O)C2O)CC(C)(NCc2ccc(-c3ccc(Cl)cc3)cc2)C1O (stereo not drawn) [Compound 522, Des-Lecyl Vancomycin, reference compound] | > 25 | > 25 | > 25 | > 25 | > 25 |  | > 25 |  | 
11 | COCC(N)C(=O)NC1C(=O)NC(CC(N)=O)C(=O)NC2C(=O)NC3C(=O)NC(C(=O)NC(C(=O)O)c4cc(O)cc(O)c4-c4cc3ccc4O)C(O)c3ccc(c(Cl)c3)Oc3cc2cc(c3OC2OC(CO)C(O)C(O)C2OC2CC(C)(NCc3ccc(-c4ccc(Cl)cc4)cc3)C(O)C(C)O2)Oc2ccc(cc2Cl)C1O (stereo not drawn) [Compound 525] | 25 | 25 | 0.39 | 0.39 | 0.25 |  |  |  | 
12 | CC1OC(OC2C(Oc3c4cc5cc3Oc3ccc(cc3Cl)C(O)C3NC(=O)C(NC(=O)C5NC(=O)C(CC(N)=O)NC(=O)C(NC(=O)C(N)Cc5ccc(O)c([N+](=O)[O-])c5)C(O)c5ccc(c(Cl)c5)O4)c4ccc(O)c(c4)-c4c(O)cc(O)cc4C(C(=O)O)NC3=O)OC(CO)C(O)C2O)CC(C)(NCc2ccc(-c3ccc(Cl)cc3)cc2)C1O (stereo not drawn) [Compound 557] | 25 | 25 |  |  | 0.39 |  |  |  | 

Reference: patent US6518243B1, “Desleucyl glycopeptide antibiotics and methods of making same” (Trustees of Princeton University, priority 1999, dated 2003)
